According to US6989448B2, “Heteroaryl alkyl alpha substituted peptidylamine calcium channel blockers” (priority 1998, dated 2006):
Structures can show the parent of a compound that is named as a salt.

What was measured:
N-type Ca2+ channel = molecular target: T1, N-type Ca2+ channel (Homo sapiens, UniProt Q00975); assay: Measurement of N-type Ca2+ channel blocking potencies in IMR-32 cells using the fluorescent Ca2+ indicator Indo-1; assay type: cell-based; settings: for IC50: K+-stimulated Ca2+ flux, 5 μM nitrendipine to block L-type channels, some values marked (est.); for IMR-32 % of Blockade @ μM: 5 μM nitrendipine
T1 construct: host or cells: IMR-32 cells, differentiated with dibutyryl cAMP and bromodeoxyuridine
Description: Measurement of N-type Ca^2+ Channel Blocking Potencies of Compounds in IMR-32 Cells Using the Fluorescent Ca^2+ Indicator Indo-1
IMR-32 cells are a human tumoral cell line of neural origin. […] Calcium flux into these cells may be induced by stimulation with elevated potassium concentrations. The L-channel component of calcium flux may be blocked by adding 5 μM nitrendipine. The remaining component of calcium entry into the IMR-32 cells is due to calcium flux through N-type calcium channels. Intracellular calcium concentrations are measured using the fluorescent calcium indicator Indo-1. The effect of drug concentration on calcium uptake is studied.
The IMR-32 cell line was obtained from the American Type Culture Collection (Rockville, Md.). Cells were grown in Eagle's Minimum Essential Medium with Earle's salts supplemented with 10% fetal bovine serum, 2 mM L-Gln and antibiotic/antimycotic mixture (Gibco). At approximately 80% confluency, differentiation was induced by the addition of 1 mM dibutyryl cAMP and 2.5 μM bromodeoxyuridine to the medium. After 7 to 13 days of differentiation, cells were detached using 0.5 mM EDTA and loaded with 5 μM Indo-1 acetoxymethyl ester (Molecular Probes, Eugene, Oreg.) at 30° C. for 45 minutes Loaded cells were washed twice, resuspended (˜10^7 cells/mL) in assay buffer (10 mM HEPES/Tris pH 7.4 in Hank's Balanced Salt Solution without bicarbonate or phenol red containing 0.5% bovine serum albumin) and kept on ice until use. Fluorescence measurements were carried out in a Photon Technology International (PTI, South Brunswick, N.J.) Model RF-F3004 spectrofluorometer with dual emission monochromators using excitation at 350 nm and emission at 400 and 490 nm. The instrument was equipped with a thermostated cuvette holder with stirring capabilities, as well as with a computer-controlled pump which allowed for reagent addition during measurement. Instrument control and data collection was done by PTI's OSCAR software running on an IBM compatible computer. Different concentrations of the test compounds (60 μL in dimethyl sulfoxide) were added to 5.94 mL of assay buffer containing approximately 3×10^6 loaded cells, and 5 μM nitrendipine (in 30 μL EtOH) to block L-type Ca^2+ channels. Samples were incubated for 10 minutes at 30° C. and then aliquoted into three 10×10 mm disposable acrylic cuvettes. Emission signals at 400 and 490 nm were acquired from each cuvette at 30° C. for 50 seconds. At 20 seconds after the start of reading, cells were depolarized by the addition of 160 μL of stimulation solution (1 M KCl, 68 mM CaCl2) to the cuvette via the computer-controlled pump. Ratio of dual emission signals (400 nm/490 nm), which is proportional to intracellular Ca^2+ concentration, was plotted against time, and the difference between maximal response after stimulation and basal value (before stimulation) was determined. Values obtained in this way were plotted as a function of drug concentration. IC50 values of test compounds were calculated by fitting a 4-parameter logistic function to the data using the least squares method.

DBA/2 mice = assay: Audiogenic (sound-induced) seizure test in DBA/2 mice, protection from tonic seizures; assay type: in vivo; settings: 30 mg/kg, intravenous, tested 15 or 45 minutes after injection
Description: In Vivo Biological Protocol
A compound of the present invention was dissolved in water using 10% (weight/volume) Emulphor (GAF Corp., Wayne, N.J.) surfactant. Substances were administered by intravenous injection into the retro-orbital venous sinus. All testing was performed 15 minutes or 45 minutes after drug injection. All the male mice, 3 to 4 weeks old, were obtained from Jackson Laboratories, Bar Harbour, Me. Immediately before anticonvulsant testing, mice were placed upon a wire mesh, 4 inches square suspended from a steel rod. The square was slowly inverted through 180 degree and mice observed for 30 seconds. Any mouse falling from the wire mesh was scored as ataxia.
Mice were placed into an enclosed acrylic plastic chamber (21 cm height, approximately 30 cm diameter) with a high-frequency speaker (4 cm diameter) in the center of the top lid. An audio signal generator (Protek Model B-810) was used to produce a continuous sinusoidal tone that was swept linearly in frequency between 8 kHz and 16 kHz once each 10 msec. The average sound pressure level (SPL) during stimulation was approximately 100 dB at the floor of the chamber. Mice were placed within the chamber and allowed to acclimatize for 1 minute. DBA/2 mice in the vehicle-treated group responded to the sound stimulus (applied until tonic extension occurred, or for a maximum of 60 sec) with a characteristic seizure sequence consisting of wild running followed by clonic seizures, and later by tonic extension, and finally by respiratory arrest and death in 80% or more of the mice. In vehicle-treated mice, the entire sequence of seizures to respiratory arrest lasts approximately 15 to 20 seconds.
The incidence of all the seizure phases in the drug-treated and vehicle-treated mice was recorded, and the occurrence of tonic seizures were used for calculating anticonvulsant ED50 values by probit analysis. Mice were used only once for testing at each time and dose point.

T1 sequence (Q00975 whole entry): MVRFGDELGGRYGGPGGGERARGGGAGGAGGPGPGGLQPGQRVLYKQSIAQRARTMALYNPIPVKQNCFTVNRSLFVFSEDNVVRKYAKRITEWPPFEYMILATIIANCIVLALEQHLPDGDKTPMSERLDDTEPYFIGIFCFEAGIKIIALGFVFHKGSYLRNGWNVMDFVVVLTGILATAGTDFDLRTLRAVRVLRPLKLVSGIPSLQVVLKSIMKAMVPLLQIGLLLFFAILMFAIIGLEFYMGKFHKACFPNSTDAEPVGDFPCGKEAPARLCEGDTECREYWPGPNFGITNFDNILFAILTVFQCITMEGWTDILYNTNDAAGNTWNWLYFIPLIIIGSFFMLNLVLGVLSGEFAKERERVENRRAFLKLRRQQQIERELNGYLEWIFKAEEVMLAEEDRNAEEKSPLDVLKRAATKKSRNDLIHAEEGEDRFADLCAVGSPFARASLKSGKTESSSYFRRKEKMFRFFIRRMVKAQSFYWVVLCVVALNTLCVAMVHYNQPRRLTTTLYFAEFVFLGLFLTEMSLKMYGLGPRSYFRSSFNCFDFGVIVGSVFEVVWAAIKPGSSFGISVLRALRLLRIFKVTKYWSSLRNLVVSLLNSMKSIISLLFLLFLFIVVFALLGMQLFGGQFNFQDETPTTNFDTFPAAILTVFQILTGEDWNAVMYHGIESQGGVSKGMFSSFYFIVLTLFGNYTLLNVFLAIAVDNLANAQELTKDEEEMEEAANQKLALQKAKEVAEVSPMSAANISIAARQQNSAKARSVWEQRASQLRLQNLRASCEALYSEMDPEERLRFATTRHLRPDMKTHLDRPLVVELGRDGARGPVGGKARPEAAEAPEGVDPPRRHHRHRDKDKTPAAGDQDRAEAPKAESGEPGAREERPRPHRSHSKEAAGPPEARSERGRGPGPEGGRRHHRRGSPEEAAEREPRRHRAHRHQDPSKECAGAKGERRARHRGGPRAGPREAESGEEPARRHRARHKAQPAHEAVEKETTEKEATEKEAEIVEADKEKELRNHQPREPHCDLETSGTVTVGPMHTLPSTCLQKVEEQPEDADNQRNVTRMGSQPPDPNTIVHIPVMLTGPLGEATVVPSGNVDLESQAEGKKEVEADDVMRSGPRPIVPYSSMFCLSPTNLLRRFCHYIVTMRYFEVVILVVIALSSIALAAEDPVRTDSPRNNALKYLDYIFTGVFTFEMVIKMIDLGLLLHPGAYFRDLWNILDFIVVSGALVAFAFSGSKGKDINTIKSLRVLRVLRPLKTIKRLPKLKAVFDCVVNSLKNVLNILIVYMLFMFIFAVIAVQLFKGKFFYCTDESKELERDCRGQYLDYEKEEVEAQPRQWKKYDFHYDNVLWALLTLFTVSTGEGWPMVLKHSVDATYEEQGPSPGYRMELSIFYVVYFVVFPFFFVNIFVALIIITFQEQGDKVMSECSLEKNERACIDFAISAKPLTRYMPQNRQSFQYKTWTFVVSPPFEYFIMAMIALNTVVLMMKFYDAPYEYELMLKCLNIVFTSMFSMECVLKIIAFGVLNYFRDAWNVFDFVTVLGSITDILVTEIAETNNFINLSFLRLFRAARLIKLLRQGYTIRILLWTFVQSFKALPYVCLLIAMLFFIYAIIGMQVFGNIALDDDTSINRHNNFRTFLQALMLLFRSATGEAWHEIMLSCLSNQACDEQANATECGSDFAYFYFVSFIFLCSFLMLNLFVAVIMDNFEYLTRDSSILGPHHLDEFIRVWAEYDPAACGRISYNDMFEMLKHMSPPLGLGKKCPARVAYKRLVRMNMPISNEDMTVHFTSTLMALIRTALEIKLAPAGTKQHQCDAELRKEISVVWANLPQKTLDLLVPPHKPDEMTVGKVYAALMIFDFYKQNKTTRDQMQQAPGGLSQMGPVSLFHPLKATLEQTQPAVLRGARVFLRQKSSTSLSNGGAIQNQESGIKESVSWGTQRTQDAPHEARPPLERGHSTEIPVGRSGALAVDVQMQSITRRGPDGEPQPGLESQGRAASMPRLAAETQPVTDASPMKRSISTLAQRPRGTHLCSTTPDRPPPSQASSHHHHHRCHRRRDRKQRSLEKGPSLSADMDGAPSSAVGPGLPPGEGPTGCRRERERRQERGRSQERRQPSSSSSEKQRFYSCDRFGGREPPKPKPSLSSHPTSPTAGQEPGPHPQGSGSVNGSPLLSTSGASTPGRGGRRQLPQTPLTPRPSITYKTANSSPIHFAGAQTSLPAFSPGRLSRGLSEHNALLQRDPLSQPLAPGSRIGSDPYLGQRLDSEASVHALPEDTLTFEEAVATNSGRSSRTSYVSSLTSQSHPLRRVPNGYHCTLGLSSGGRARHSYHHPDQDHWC
T1 sequence (P54289 25-956 partner limits assumed): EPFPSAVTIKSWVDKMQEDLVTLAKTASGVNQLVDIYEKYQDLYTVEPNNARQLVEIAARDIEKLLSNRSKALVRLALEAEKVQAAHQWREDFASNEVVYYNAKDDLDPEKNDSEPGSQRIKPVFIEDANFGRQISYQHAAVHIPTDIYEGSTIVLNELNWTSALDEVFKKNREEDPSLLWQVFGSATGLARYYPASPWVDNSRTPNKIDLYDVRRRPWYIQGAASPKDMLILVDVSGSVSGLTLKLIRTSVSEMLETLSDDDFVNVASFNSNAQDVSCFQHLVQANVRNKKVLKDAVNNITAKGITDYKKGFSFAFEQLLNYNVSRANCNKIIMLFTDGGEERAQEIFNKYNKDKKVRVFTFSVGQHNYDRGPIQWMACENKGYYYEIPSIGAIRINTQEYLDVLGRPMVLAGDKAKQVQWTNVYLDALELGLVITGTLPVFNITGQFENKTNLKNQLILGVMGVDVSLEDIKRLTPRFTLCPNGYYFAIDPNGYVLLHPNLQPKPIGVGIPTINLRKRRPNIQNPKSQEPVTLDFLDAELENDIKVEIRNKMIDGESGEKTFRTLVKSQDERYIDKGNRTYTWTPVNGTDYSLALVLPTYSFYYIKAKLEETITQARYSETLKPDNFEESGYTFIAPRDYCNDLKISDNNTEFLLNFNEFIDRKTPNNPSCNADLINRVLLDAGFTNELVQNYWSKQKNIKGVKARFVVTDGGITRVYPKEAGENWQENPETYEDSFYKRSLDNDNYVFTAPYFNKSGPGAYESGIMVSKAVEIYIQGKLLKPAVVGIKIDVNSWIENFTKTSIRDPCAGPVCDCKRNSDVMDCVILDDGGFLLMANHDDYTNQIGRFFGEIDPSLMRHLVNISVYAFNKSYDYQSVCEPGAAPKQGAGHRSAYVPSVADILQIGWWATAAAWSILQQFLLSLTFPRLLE
T1 sequence (P54289 957-1103 partner limits assumed): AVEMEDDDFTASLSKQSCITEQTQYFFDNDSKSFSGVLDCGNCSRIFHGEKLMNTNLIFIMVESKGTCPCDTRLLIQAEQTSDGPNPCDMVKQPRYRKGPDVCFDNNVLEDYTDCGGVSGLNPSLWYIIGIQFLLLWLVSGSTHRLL
T1 sequence (P54284 whole entry partner): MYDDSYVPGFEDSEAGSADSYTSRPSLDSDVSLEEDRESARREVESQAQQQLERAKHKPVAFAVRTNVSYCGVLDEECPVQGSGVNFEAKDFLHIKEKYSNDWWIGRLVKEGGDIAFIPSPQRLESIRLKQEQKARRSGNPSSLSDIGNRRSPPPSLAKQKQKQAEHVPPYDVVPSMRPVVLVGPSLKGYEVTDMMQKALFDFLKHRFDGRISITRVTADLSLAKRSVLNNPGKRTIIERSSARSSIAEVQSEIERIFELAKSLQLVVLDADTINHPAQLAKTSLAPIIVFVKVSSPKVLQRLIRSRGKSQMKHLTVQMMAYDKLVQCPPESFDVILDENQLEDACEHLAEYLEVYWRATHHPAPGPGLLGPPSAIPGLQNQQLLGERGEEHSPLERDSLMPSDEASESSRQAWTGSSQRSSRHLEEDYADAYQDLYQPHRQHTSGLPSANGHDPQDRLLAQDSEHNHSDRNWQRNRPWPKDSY

In the case of `CC(C)(C)NC(=O)[C@H](Cc1ccc(OCc2ccccc2)cc1)NC(=O)[C@H](Cc1cscn1)NC1C=CCCC1` (stereo partly drawn) (as salt: HCl) [Example 6, [S—(R*,R*)]—N-[2-(4-Benzyloxy-phenyl)-1-tert-butylcarbamoyl-ethyl]-2-(cyclohex-2-enylamino)-3-thiazol-4-yl-propionamide], the melting point is reported as 243 to 244 °C.

Work on `CC(C)(C)NC(=O)[C@H](Cc1ccc(OCc2ccccc2)cc1)NC(=O)[C@H](Cc1c[nH]cn1)NCC1CCCCC1` [Example 8, [S—(R*,R*)]—N-[2-(4-Benzyloxy-phenyl)-1-tert-butylcarbamoyl-ethyl]-2-(cyclohexylmethyl-amino)-3-(1H-imidazol-4-yl)-propionamide] yielded an IC50 (N-type Ca2+ channel) of 670 nM.

For `CC(C)(C)NC(=O)[C@H](Cc1ccc(OCc2ccccc2)cc1)NC(=O)[C@H](Cc1cccnc1)NC1C=CCCC1` (stereo partly drawn) [Example 4, [S—(R*,R*)]—N-[2-(4-Benzyloxy-phenyl)-1-tert-butylcarbamoyl-ethyl]-2-(cyclohex-2-enylamino)-3-pyridin-3-yl-propionamide], the IC50 (N-type Ca2+ channel) was 1000 nM and the “DBA/2 mice % protection (dose)” value (DBA/2 mice) was 60% @ 30 mg/kg.

`CC(C)(C)NC(=O)[C@H](Cc1ccc(OCc2ccccc2)cc1)NC(=O)[C@H](Cc1c[nH]cn1)NCC1CCCCC1` (as salt: salt) [Example 8, [S—(R*,R*)]—N-[2-(4-Benzyloxy-phenyl)-1-tert-butylcarbamoyl-ethyl]-2-(cyclohexylmethyl-amino)-3-(1H-imidazol-4-yl)-propionamide] gave a melting point of 163 to 165 °C.

In the case of `CC(C)N[C@@H](Cc1c[nH]cn1)C(=O)N[C@@H](Cc1ccc(OCc2ccccc2)cc1)C(=O)NC(C)(C)C` (relative stereo) [Example 9, [S—(R*,R*)]N-[2-(4-Benzyloxy-phenyl)-1-tert-butylcarbamoyl-ethyl]-2-(1-methylethyl-amino)-3-(1H-imidazol-4-yl)-propionamide], the “IMR-32 % of Blockade @ μM” value (N-type Ca2+ channel; @ 1 μM) is reported as 11% and the “IMR-32 % of Blockade @ μM” value (N-type Ca2+ channel; @ 10 μM) is reported as 55%.

`CC(C)CCN[C@@H](Cc1ccncc1)C(=O)N[C@@H](Cc1ccc(OCc2ccccc2)cc1)C(=O)NC(C)(C)C` [Example 1, [S—(R*,R*)]—N-[2-(4-Benzyloxy-phenyl)-1-tert-butylcarbamoyl-ethyl]-2-(3-methyl-butylamino)-3-pyridin-4-yl-propionamide] showed an IC50 (N-type Ca2+ channel) of 400 nM.

In the case of `CC(C)CCN[C@@H](Cc1cccnc1)C(=O)NC(Cc1ccc(OCc2ccccc2)cc1)C(=O)NC(C)(C)C` (stereo in doubt) [Example 3, [S-(R*,R*)]—N-[2-(4-Benzyloxy-phenyl)-1-tert-butylcarbamoyl-ethyl]-2-(3-methyl-butylamino)-3-pyridin-3-yl-propionamide], the IC50 (N-type Ca2+ channel) is reported as 770 nM and the “DBA/2 mice % protection (dose)” value (DBA/2 mice) is reported as 80% @ 30 mg/kg.

Compound `CC(C)(C)NC(=O)[C@H](Cc1ccc(OCc2ccccc2)cc1)NC(=O)[C@H](Cc1cscn1)NC1C=CCCC1` (stereo partly drawn) [Example 6, [S—(R*,R*)]—N-[2-(4-Benzyloxy-phenyl)-1-tert-butylcarbamoyl-ethyl]-2-(cyclohex-2-enylamino)-3-thiazol-4-yl-propionamide] has an IC50 (N-type Ca2+ channel) of 1100 nM.

For `CC(C)(C)NC(=O)[C@H](Cc1ccc(OCc2ccccc2)cc1)NC(=O)[C@H](Cc1ccncc1)NC1C=CCCC1` (stereo partly drawn) [Example 2, [S-(R*,R*)]—N-[2-(4-Benzyloxy-phenyl)-1-tert-butylcarbamoyl-ethyl]-2-(cyclohex-2-enylamino)-3-pyridin-4-yl-propionamide], the IC50 (N-type Ca2+ channel) was 1300 nM.

With `CC(C)CCN[C@@H](Cc1cscn1)C(=O)NC(Cc1ccc(OCc2ccccc2)cc1)C(=O)NC(C)(C)C` (stereo in doubt) [Example 5, [S—(R*,R*)]—N-[2-(4-Benzyloxy-phenyl)-1-tert-butylcarbamoyl-ethyl]-2-(3-methyl-butylamino)-3-thiazol-4-yl-propionamide] the “IMR-32 % of Blockade @ μM” value (N-type Ca2+ channel; @ 1 μM) was 79%, the “IMR-32 % of Blockade @ μM” value (N-type Ca2+ channel; @ 10 μM) was 97% and the “DBA/2 mice % protection (dose)” value (DBA/2 mice) was 100% @ 30 mg/kg.

In the case of `CC(C)(C)NC(=O)[C@H](Cc1ccc(OCc2ccccc2)cc1)NC(=O)[C@H](Cc1cscn1)NC1CCCCC1` (relative stereo) [Example 7, [S—(R*,R*)]-N-[2-(4-Benzyloxy-phenyl)-1-tert-butylcarbamoyl-ethyl]-2-cyclohexylamino-3-thiazol-4-yl-propionamide], the “IMR-32 % of Blockade @ μM” value (N-type Ca2+ channel; @ 1 μM) is reported as 67% and the “IMR-32 % of Blockade @ μM” value (N-type Ca2+ channel; @ 10 μM) is reported as 95%.

Compound `CC(C)(C)NC(=O)[C@H](Cc1ccc(OCc2ccccc2)cc1)NC(=O)[C@H](Cc1ccncc1)NC1C=CCCC1` (stereo partly drawn) (as salt: HCl) [Example 2, [S-(R*,R*)]—N-[2-(4-Benzyloxy-phenyl)-1-tert-butylcarbamoyl-ethyl]-2-(cyclohex-2-enylamino)-3-pyridin-4-yl-propionamide] has a melting point of 163 to 164 °C.
